The values that follow come from patent US4564627A, “Feed composition” (Nihon Nohyaku Co., Ltd., priority 1982, dated 1986).

Structures are written as SMILES. Entries after “also recorded” stand apart in the source; their conditions may differ.

A short description of one series: LD50 mouse (male). Particulars: in vivo. An excerpt: Examples of the compounds represented by the general formula [1] according to this invention and their toxicities are shown below.
Series [1] has as its system laying hens. The series can be described thus: Thickness of eggshell of laying hens (Test Example 2). It is filed as in vivo. An excerpt:
(§1) As test hens, commercially available laying hens of 480 day age were used. The control group fed with a feed not containing any compound of this invention consisted of 100 laying hens, and each test group fed with a feed containing a compound of this invention consisted of 10 laying hens. The test was repeated twice. The test period was 16 weeks from Nov. 17, 1981 to Mar. 8, 1982. The first 4 weeks from the start was a preliminary observation period, during which each group was controlled so as to give the same egg production rate. As the feed, a commercially available feed for laying hens (Cp 16% or above, ME 2,800 kcal/kg or above) was used. From the 5th week, predetermined quantities of test compounds were uniformly added to this feed and the resulting blended feeds were given to test groups. Feeds and water were given ad libitum. Constant lighting was made for 14 hr a day. Egg production rate was daily recorded for each individual hen and egg weight for each test group. Feed intake quantity was obtained by calculating on every other week a difference between quantity fed and quantity left. For examining egg quality, strength of eggshell and thickness of eggshell were measured for all normal eggs laid during a period of the previous day of measurement to 3 P.M. of the measurement day. Strength of eggshell was measured by a FHK eggshell strength tester model FN-597, and thickness of eggshell by a dial thickness gauge.

Series [2] is described as follows: Growth of body weight of broilers (Test Example 1). Particulars: for Body weight at week age 0: week age 0 (before addition); for Body weight at week age 3: week age 3 (start of addition). It is filed as in vivo, "A A Fuji" broilers (chicken). As to the method:
(§2) To each group consisting of 30 "A A Fuji" broilers (15 male, 15 female), a commercially available early period broiler feed (crumble form, Cp 22%, ME 3,030 kcal/kg) was given from beginning of feeding to 4 week age, and a latter period broiler feed (mash form, Cp 18%, ME 3,030 kcal/kg) was given ad libitum from 4 week age to 10 week age. The test period was from Oct. 10, 1981 through Dec. 20, 1981. Addition of test compounds to the above feeds in predetermined concentrations was conducted from 3 week age through the completion of the test.
(1) Growth of body weight
[…] All broilers were measured and an average body weight was calculated for each group.

The nature of series [3]: Feed intake of laying hens (Test Example 2). It counts as in vivo. As to conditions: 2,500 ppm in feed.
Excerpt: as §1, with “Constant lighting was made for 14 hr a day.” left out

Series [4] has as its system broilers. Description: Crude fat content in liver of broilers (Test Example 1). It counts as in vivo, "A A Fuji" broilers (chicken). On the procedure: as §2
(§3) Five broilers at 6 week age, five broilers at 8 week age and ten broilers at 10 week age were taken out from each group and slaughtered. Immediately after slaughtering, they were cooled in water for about 2 hr and the body weight of each slaughtered broiler was measured and subsequently they were stored at 2° C. for about 20 hr. Then, in order to measure abdominal fat, mesentary fat was removed and fat adhered to from gizzard to proventriculus was collected and weighed as the weight of abdominal fat. This weight was divided by body weight to obtain abdominal fat deposit per 100 g of body weight. Further, liver fat was also collected and weighed. A liver under freeze storage was cut into slices in a total quantity of 2 to 3 g. The slices were placed in a cylindrical filter paper and weighed. Then, these slices were dried for 3 hr in a hot air drier kept at 90° C. and subsequently extracted for 17 hr with ethyl ether in a Soxhlet fat extractor. After drying the extract for 3 hr at 60° C. and weighing the residue, crude fat content in liver was calculated.

Series [5] relates to broilers. Description: Abdominal fat deposit of broilers (Test Example 1). It counts as in vivo, "A A Fuji" broilers (chicken). On the procedure:
as §2, §3

Series [6] concerns laying hens. The series can be described thus: Strength of eggshell of laying hens (Test Example 2). It is filed as in vivo.
Excerpt: as §1

The nature of series [7]: Feed consumption of broilers (Test Example 1). It is filed as in vivo, "A A Fuji" broilers (chicken). Particulars: 2,400 ppm in feed. As to the method:
as §2
Feed consumption was calculated by weighing feeds left at the time of body weight measurement, and therefrom feed conversion ratio was calculated.

By LD50 is commonly meant the dose expected to kill half of the subjects tested.

As to `CC(C)OC(=O)C(C(=O)OC(C)C)=C1SC(C(=O)O)S1` (stereo not shown), the LD50 in “LD50 mouse (male)” was above 5000 mg/kg.
Same read-out and setting: the same measure for `CC(C)OC(=O)C(C(=O)OC(C)C)=C1SCS1` [compound 1]: above 5000 mg/kg; for `CCOC(=O)C(C(=O)OC(C)C)=C1SCS1` [compound 2]: above 5000 mg/kg.
Consider `CC(C)OC(=O)C(C(=O)OC(C)C)=C1SC=CS1` [compound 4], for which the Eggshell thickness with laying hens [1] (509th day, 100 ppm in feed) is listed as 0.345 mm; with laying hens [1] (509th day, 500 ppm in feed), 0.342 mm; with laying hens [1] (509th day, 2,500 ppm in feed) it was 0.336 mm; with laying hens [1] (555th day, 100 ppm in feed), 0.343 mm; in the series on laying hens [1] (555th day, 500 ppm in feed) it was 0.350 mm; in the series on laying hens [1] (555th day, 2,500 ppm in feed), 0.347 mm. The Eggshell thickness in the series with laying hens [1] (612th day, 100 ppm in feed) is reported as 0.342 mm; with laying hens [1] (612th day, 500 ppm in feed) it was 0.345 mm; in the series on laying hens [1] (612th day, 2,500 ppm in feed), 0.344 mm. In series [2] (broilers, 2,400 ppm in feed), the “Growth of body weight (in words)” value is “badly affected; also recorded: lower growth of body weight”. The “Body weight at week age 0” value in series [2] (200 ppm in feed from 3 week age), in series [2] (400 ppm in feed from 3 week age), in series [2] (800 ppm in feed from 3 week age) and in series [2] (2,400 ppm in feed from 3 week age) was 41 g in each case. The “Body weight at week age 3” value in series [2] (200 ppm in feed) is 620 g; in series [2] (400 ppm in feed) it was 626 g; in series [2] (800 ppm in feed), 625 g; in series [2] (2,400 ppm in feed), 621 g. In addition, the “Body weight at week age 4” value was determined as 981 g in series [2] (200 ppm in feed), 985 g in series [2] (400 ppm in feed), 984 g in series [2] (800 ppm in feed) and 974 g in series [2] (2,400 ppm in feed). Also, the “Body weight at week age 5” value was 1,341 g in series [2] (200 ppm in feed), 1,346 g in series [2] (400 ppm in feed), 1,330 g in series [2] (800 ppm in feed) and 1,316 g in series [2] (2,400 ppm in feed). Further, the “Body weight at week age 6” value is listed as 1,661 g in series [2] (200 ppm in feed), 1,667 g in series [2] (400 ppm in feed), 1,662 g in series [2] (800 ppm in feed) and 1,640 g in series [2] (2,400 ppm in feed). In addition, the “Body weight at week age 7” value in series [2] (200 ppm in feed) is listed as 2,090 g; in series [2] (400 ppm in feed) it was 2,102 g; in series [2] (800 ppm in feed) it was 2,065 g; in series [2] (2,400 ppm in feed), 2,003 g. Moreover, the “Body weight at week age 8” value is 2,502 g in series [2] (200 ppm in feed), 2,512 g in series [2] (400 ppm in feed), 2,496 g in series [2] (800 ppm in feed) and 2,388 g in series [2] (2,400 ppm in feed). Further, the “Body weight at week age 9” value in series [2] (200 ppm in feed) was 2,860 g; in series [2] (400 ppm in feed) it was 2,874 g; in series [2] (800 ppm in feed), 2,871 g; in series [2] (2,400 ppm in feed) it was 2,796 g. Further, the “Body weight at week age 10” value was 3,105 g in series [2] (200 ppm in feed), 3,115 g in series [2] (400 ppm in feed), 3,098 g in series [2] (800 ppm in feed) and 2,984 g in series [2] (2,400 ppm in feed). In addition, the LD50 in “LD50 mouse (male)” (unit printed kg/mg) is 3120 mg/kg. In series [3], the “Feed intake (in words)” value is given as “a lower value was seen with significance”. Besides, the “Crude fat content in liver” value with broilers [4] (6w, 200 ppm in feed) is given as 2.20%; in the series on broilers [4] (6w, 400 ppm in feed), 2.06%; with broilers [4] (6w, 800 ppm in feed), 2.17%; with broilers [4] (6w, 2,400 ppm in feed), 2.11%; in the series with broilers [4] (8w, 200 ppm in feed) it was 5.23%; in the series with broilers [4] (8w, 400 ppm in feed), 5.02%. The “Crude fat content in liver” value came out at 4.62% in the series with broilers [4] (8w, 800 ppm in feed); 4.04% in the series on broilers [4] (8w, 2,400 ppm in feed); 4.47% in the series with broilers [4] (10w, 200 ppm in feed); 4.29% in the series on broilers [4] (10w, 400 ppm in feed); 4.25% in the series with broilers [4] (10w, 800 ppm in feed); 3.96% in the series with broilers [4] (10w, 2,400 ppm in feed). In addition, the Abdominal fat deposit with broilers [5] (6w, 200 ppm in feed) is 3.20 g/100 g; with broilers [5] (6w, 400 ppm in feed), 3.02 g/100 g; in the series on broilers [5] (6w, 800 ppm in feed), 2.93 g/100 g; in the series on broilers [5] (6w, 2,400 ppm in feed), 2.92 g/100 g; in the series on broilers [5] (8w, 200 ppm in feed) it was 3.55 g/100 g; in the series on broilers [5] (8w, 400 ppm in feed), 3.18 g/100 g. In addition, the Abdominal fat deposit in the series with broilers [5] (8w, 800 ppm in feed) was 3.22 g/100 g; in the series on broilers [5] (8w, 2,400 ppm in feed), 3.15 g/100 g; in the series with broilers [5] (10w, 200 ppm in feed), 3.83 g/100 g; in the series on broilers [5] (10w, 400 ppm in feed), 3.78 g/100 g; in the series with broilers [5] (10w, 800 ppm in feed), 3.37 g/100 g; in the series on broilers [5] (10w, 2,400 ppm in feed), 3.22 g/100 g. Also, the Eggshell strength with laying hens [6] (509th day, 100 ppm in feed) is 2.47 kg; with laying hens [6] (509th day, 500 ppm in feed), 2.46 kg; with laying hens [6] (509th day, 2,500 ppm in feed), 2.44 kg; with laying hens [6] (555th day, 100 ppm in feed), 2.88 kg; in the series on laying hens [6] (555th day, 500 ppm in feed), 2.93 kg; in the series with laying hens [6] (555th day, 2,500 ppm in feed) it was 2.97 kg. For the same compound, the Eggshell strength is recorded as 2.97 kg in the series on laying hens [6] (612th day, 100 ppm in feed); 3.02 kg with laying hens [6] (612th day, 500 ppm in feed); 3.08 kg in the series with laying hens [6] (612th day, 2,500 ppm in feed). For the same compound, the “Feed consumption (in words)” value in series [7] is given as “significant reduction of feed consumption”.
For the compound `CCOC(=O)C(C(=O)OCC)=C1SC=CS1` [compound 5], the median lethal dose (LD50) in “LD50 mouse (male)” came to 4900 mg/kg.
The same measure, in the same setting: the same measure for `CC(C)OC(=O)C(C(=O)OC(C)C)=C1SCC[S+]1[O-]` (stereo not shown) [compound 7]: above 6000 mg/kg; for `CC(C)OC(=O)C(C(=O)OC(C)C)=C1SCC(O)S1` (stereo not shown) [compound 8]: above 6590 mg/kg.
